In patent US9918971B2, “Aerosol formulations of granisetron and uses thereof” (LUXENA PHARMACEUTICALS, INC., priority 2013, dated 2018):
Converted amounts (≈) assume the structure as drawn. “And” between values parts separate entries of the source, which are not always exact repeats. Equal values may be shown once. Read-outs that look alike come from different tables or passages of the source.

Key:
[1] = Particle size distribution of spray dried granisetron fine powder by Malvern Mastersizer; details: typical particle size distribution
[2] = Solubility of granisetron in pMDI medium; format: physicochemical
Description: The solubility of granisetron was measured in a pMDI medium of HFA 134 as well as a mixture of HFA 134 and ethanol.

[3] = Particle size distribution of jet milled granisetron fine powder by Malvern Spraytec

Q: Which results are given for `CN1C2CCCC1CC(NC(=O)c1nn(C)c3ccccc13)C2` (stereo not shown) [Spray Dried Granisetron Fine Powder, granisetron]?
A: Cumulative % on <9 μm [1]: 98.0%; D10 [1]: 1.01 μm; D50 [1]: 2.33 μm; D90 [1]: 5.34 μm

Q: With `CN1C2CCCC1CC(NC(=O)c1nn(C)c3ccccc13)C2` (stereo not shown) [granisetron] as the molecule, how does the “Solubility, single determinations” value ([2]; HFA 134a with Ethanol (9:1), 10 days) read?
A: 74.29 µg/mL and 97.99 µg/mL and 73.93 µg/mL

Q: What about the “Solubility, single determinations” value ([2]; HFA 134a with Ethanol (9:1), ~24 Hours) of the same molecule?
A: 84.173 µg/mL and 81.496 µg/mL

Q: And the Solubility ([2]; HFA 134a, 24 hours, converted with gravity 1.21 g/mL)?
A: 0.00018 % w/w

Q: And the “Solubility, single determinations” value ([2]; HFA 134a, 10 days)?
A: 14.84 µg/mL and 10.26 µg/mL and 11.51 µg/mL and 15.77 µg/mL

Q: And the Solubility ([2]; HFA 134a, 10 days, converted with gravity 1.21 g/mL)?
A: 0.00108 % w/w

Q: What about the Solubility ([2]; HFA 134 and ethanol, 24 hours) of the same molecule?
A: 0.00706 % w/w

Q: And the Solubility ([2]; HFA 134 and ethanol, 10 days)?
A: 0.00681 % w/w

Q: What about the solubility at 10 days ([2]; pMDI medium (HFA 134a propellant), organic solvent or mixture, HFA 134a, 10 days, read-out: Solubility, Average (RSD)) of the same molecule?
A: 13.1 µg/mL (≈ 42 µM)

Q: What about the solubility at 10 days ([2]; pMDI medium (HFA 134a propellant), organic solvent or mixture, HFA 134a, 10 days, read-out: Solubility, single determinations) of the same molecule?
A: 13.2 µg/mL (≈ 42.1 µM)

Q: And the Solubility ([2]; pMDI medium (HFA 134a propellant), organic solvent or mixture, HFA 134a, ~24 Hours, read-out: Solubility, Average (RSD))?
A: 2.17 µg/mL (≈ 6.95 µM)

Q: What about the solubility at 10 days ([2]; pMDI medium (HFA 134a with ethanol), organic solvent or mixture, HFA 134a with Ethanol (9:1), 10 days, read-out: Solubility, Average (RSD)) of the same molecule?
A: 82.4 µg/mL (≈ 264 µM)

Q: And the solubility at 10 days ([2]; pMDI medium (HFA 134a with ethanol), organic solvent or mixture, HFA 134a with Ethanol (9:1), 10 days, read-out: Solubility, single determinations)?
A: 79.9 µg/mL (≈ 256 µM)

Q: What about the Solubility ([2]; pMDI medium (HFA 134a with ethanol), organic solvent or mixture, HFA 134a with Ethanol (9:1), ~24 Hours, read-out: Solubility, Average (RSD)) of the same molecule?
A: 85.5 µg/mL (≈ 274 µM)

Q: What about the Solubility ([2]; pMDI medium (HFA 134a with ethanol), organic solvent or mixture, HFA 134a with Ethanol (9:1), ~24 Hours, read-out: Solubility, single determinations) of the same molecule?
A: 90.8 µg/mL (≈ 291 µM)

Q: For `CN1C2CCCC1CC(NC(=O)c1nn(C)c3ccccc13)C2.Cl` (stereo not shown) [jet milled granisetron, Granisetron HCl], which “mass less than 5 μm in diameter” value ([3]; after fifth milling cycle) is on record?
A: approximately 75%

Q: And the D10 ([3]; milling cycle 0)?
A: 3.77 μm

Q: And the D50 ([3]; milling cycle 0)?
A: 50.21 μm

Q: And the D90 ([3]; milling cycle 0)?
A: 445.02 μm

Q: And the D10 ([3]; milling cycle 1)?
A: 2.22 μm

Q: What about the D50 ([3]; milling cycle 1) of the same molecule?
A: 7.01 μm

Q: What about the D90 ([3]; milling cycle 1) of the same molecule?
A: 20.59 μm

Q: And the D10 ([3]; milling cycle 3)?
A: 1.44 μm

Q: What about the D50 ([3]; milling cycle 3) of the same molecule?
A: 3.99 μm

Q: And the D90 ([3]; milling cycle 3)?
A: 9.90 μm

Q: What about the D10 ([3]; milling cycle 5) of the same molecule?
A: 1.59 μm

Q: What about the D50 ([3]; milling cycle 5) of the same molecule?
A: 3.79 μm

Q: And the D90 ([3]; milling cycle 5)?
A: 8.13 μm
